Patent US20180326021A1, “Methods and Compositions for the Treatment of Cytoplasmic Glycogen Storage Disorders” (Duke University, priority 2015, published 2018)
Values joined by “and” are separate entries in the source; they are usually repeats but may differ in a detail not shown here. Equal values may be shown once. “Also recorded” adds a separate entry of the source.

How the values were obtained:
[1] = tested on: primary muscle cells from GSD IIIa patients; experiment: rhGAA treatment of cultured primary muscle cells from GSD III patients; assay type: cell-based, human; details: normal and GSD III patient primary muscle cells, rhGAA added to culture
Protocol: FIG. 2 illustrates an analysis of the skeletal muscle biopsies from two GSD Ma patients, a person (Pt. 1) and a person (Pt. 2). […] (B) Under EM, occasional lysosomal glycogen (arrow) was also seen in the myocytes (scale bar=1 μm). […] (E) GAA activity in normal and patient cells 48 h after adding recombinant human acid alpha-glucosidase (rhGAA, Myozyme, alglucosidase alfa) treatment. […] Mean±standard deviation is shown in C—F (n=4). The significance of differences between two different groups was assessed using the two-tailed, equal variance student T-test ([…]).

GSD IV mice = experiment: Short-term rhGAA enzyme replacement therapy in GSD IV mice; assay type: in vivo, mouse
Protocol: (§1) Methods: A short-term study was conducted to determine the minimum effective dose (MED) of rhGAA treatment with 3 dosages: 20 mg/kg (human equivalent dose, n=6), 40 mg/kg (n=9), and 100 mg/kg (n=8). Male GSD IV mice received weekly intravenous injections of rhGAA were conducted for 4 week starting at age of 10 weeks. A group of age-matched untreated mice (n=8) were used as controls. To prevent anaphylactic reactions, the animals were administered 25 mg/kg diphenhydramine (i.p.) 10-15 min prior to enzyme administration. All mice were sacrificed 48 hours after the last injection following overnight fasting. Fresh tissues were immediately frozen and stored at −80° C. until use for GAA activity and glycogen content analyses. Protein concentration was measured using BCA method.

[2] = tested on: primary GSD IV mouse muscle cells; experiment: rhGAA treatment of cultured primary myoblasts from GSD IV mice; assay type: cell-based
Protocol: Primary myoblast cells were isolated from 7-day-old GSD IV mouse skeletal muscle. Early passage cells were seeded in 10-cm culture dishes with EMEM medium containing 10% FBS. When cells reached 90% confluence, rhGAA was added to the culture medium (final activity =1000 nmol/hr/ml). The cells were harvested 24 hours later to analyze glycogen content and GAA activity.
Reduction of glycogen deposition in GSD IV mouse myoblasts by rhGAA treatment was also confirmed by immunofluorescence staining using a mouse anti-glycogen monoclonal antibody ESG1A9mAb.

[3] = tested on: patient with PRKAG2 pathogenic gene mutation; experiment: Alglucosidase alfa ERT in a patient with PRKAG2 mutation (case report); assay type: in vivo, human; details: for overall clinical response (neurological, occupational and physical therapy reports): after reinitiation of ERT
Description: A patient was born by caesarian section at 38 weeks gestation as a result of the nuchal cord being wrapped around their neck. The patient was noted to have hypotonia and generalized muscle weakness. They were areflexic and had feeding difficulties. The patient began developing severe lower respiratory infections which led to frequent admissions to the hospital. […] Following numerous recurrent pneumonias, and the history of muscle weakness, the patient's physicians raised Pompe disease as a potential diagnosis. […] Given the early findings of hypotonia and the low GAA enzyme activity, a diagnosis of non-classic infantile Pompe disease was made. The patient was initiated on ERT with alglucosdase alfa at a dose of 20 mg/kg every 2 weeks.
Baseline assessments were done which included tests for AST (44 IU/L; normal range: <45 IU/L), ALT (20 IU/L; normal range: 9-80 IU/L), along with PT measures looking at muscle strength and function measures. […] Upon examination, the patient has developed more defined calf muscles, along with an improvement of […] strength and power. […] has grown physically stronger and has not had episodes in which […] lacks energy for consecutive days, becomes completely floppy, and is unable to hold their head up properly following a seizure.
At baseline, according to the MABC assessment, the patient achieved a Total Test Score of 68 ranking them in the 25th percentile. Five months after reinitiation of ERT, the patient achieved a Total Test Score of 73 on […] MABC assessment, ranking them in the 37th percentile. A minimal detectable change (MDC) for the MABC has been reported as 1.21 points, representing a true change in motor function. The results in this child show an increase of 5 points over 5 months, which is greater than the minimal important difference (MID) of the MABC, which has been reported as a change of 2.5 points shown over 6 months.

GSD III mice = experiment: Short-term rhGAA enzyme replacement therapy in GSD III mice; assay type: in vivo, mouse
Protocol: as §1, with “GSD III mice were used to test 3 dosages” for “A short-term study was conducted”, “treatment:” for “treatment with 3 dosages:”, “(n=6),” for “(human equivalent dose, n=6),”, “(n=5),” for “(n=9),”, “(n=7). Weekly” for “(n=8). Male GSD IV mice received weekly”, “10 -15” for “10-15”

[4] = 20 mg/kg weekly i.v. for 4 weeks
[5] = 40 mg and 100 mg rhGAA treatment
[6] = 40 mg/kg weekly i.v. for 4 weeks
[7] = weekly rhGAA for 4 weeks at 20, 40 or 100 mg/kg, data not shown
[8] = rhGAA 1000 nmol/hr/ml in medium, cells harvested 24 hours later
[9] = over 5 months on ERT vs pre-ERT baseline
[10] = reassessment, 5 months post ERT

In the case of “recombinant human acid alpha-glucosidase [rhGAA]”, the glycogen concentration [1] is reported as “significantly reduced”, the “glycogen in any tissue” value (GSD IV mice; 20 mg/kg) is reported as “failed to reduce glycogen in any tissue” and the “reduction of glycogen accumulation in liver” value (GSD IV mice; 20 mg/kg) is reported as “not significant”. For the same substance, the “GAA activity in heart, increase” value (GSD IV mice; [4]) was 1.7 fold, the “GAA activity in liver, increase over untreated controls” value (GSD IV mice; [4]) was 29 fold and the liver glycogen decrease (GSD IV mice; [5]) was 21-25%. The “GAA activity in heart, increase” value (GSD IV mice; [6]) was 2.8 fold, the “glycogen content in liver, change” value (GSD IV mice; [6]) was −21% and the “plasma alanine aminotransferase (ALT)” value (GSD IV mice; 40 mg/kg, p<0.01 vs untreated) was 650±32 U/L. For the same substance, the liver/body weight ratio (GSD IV mice; 40 mg/kg, p<0.05 vs untreated) was 5.0±0.2%, the “plasma aspartate aminotransferase (AST)” value (GSD IV mice; 40 mg/kg, p=0.074 vs untreated) was 849±50 U/L and the “GAA activity in skeletal muscles, increase” value (GSD IV mice; 100 mg/kg) was 1.6 fold. The “glycogen content in liver, change” value (GSD IV mice; 100 mg/kg weekly i.v. for 4 weeks) was −25%, the “GAA activity in tissues” value (GSD IV mice; 20, 40, 100 mg/kg, dose dependent) was “significant increase” and the “GAA activity in quadriceps, increase” value (GSD IV mice; at either dosage (20 or 40 mg/kg)) was “negligible”. The “GAA activity in gastrocnemius, increase” value (GSD IV mice; either treated group (20 or 40 mg/kg)) was “less than 1 fold”, the “anti-GAA antibodies generated, compared with that reported in GAA-KO mice” value (GSD IV mice; [7]) was “significantly less” and the “glycogen deposition (immunofluorescence staining)” value ([2]; 4 hours after rhGAA treatment) was “reduction of glycogen was obvious”. For the same substance, the “glycogen deposition (immunofluorescence staining)” value ([2]; 24 hours after rhGAA treatment) was “became more evident”, the “glycogen deposition (anti-glycogen antibody ESG1A9mAb staining)” value ([2]; immunofluorescence staining) was “reduced glycogen deposition” and the GAA activity increase [2, 8] was 50%. The glycogen content decrease [2, 8] was 24%, the glycogen content ([2]; rhGAA treated vs untreated cells) was “significantly (p<0.01) reduced” and the “visual motor, fine motor, and gross motor skills (M-FUN)” value ([3]; after five months of ERT) was “improvement”. For the same substance, the “overall clinical response (neurological, occupational and physical therapy reports)” value ([3]; listed as ERT) was “a clinical benefit was noted; also recorded: significant positive response”, the “overall clinical response (neurological, occupational and physical therapy reports)” value ([3]; listed as alglucosidase alfa) was “significant improvement; also recorded: significant musculoskeletal improvements” and the fatigue on reassessment ([3]; five months of ERT, listed as ERT) was “less fatigue”. For the same substance, the “Movement ABC percentile increase” value [3, 9] was 12, the “Movement ABC score increase” value [3, 9] was 5 points and the “Movement ABC Total Test Score” value ([3]; re-assessment, 5 months after reinitiation of ERT) was 73. The “Movement ABC percentile” value ([3]; re-assessment, 5 months after reinitiation of ERT, listed as ERT) was 37 percentile and 37th percentile, the “M-FUN Fine Motor Progress Score” value [3, 10] was 394 and the “M-FUN Fine Motor Scaled Score” value [3, 10] was 5 (considered mild/. The “M-FUN Fine Motor assessment notes” value [3, 10] was “Patient's scaled scores show a fine motor improvement”, the “M-FUN Gross Motor Progress Score” value [3, 10] was 407 and the “M-FUN Gross Motor Scaled Score” value [3, 10] was 3 (considered very. For the same substance, the “M-FUN Gross Motor reassessment notes” value [3, 10] was “gaining new motor skills and is improving in their current”, the “M-FUN Visual Motor Progress Score” value [3, 10] was 496 and the “M-FUN Visual Motor Scaled Score” value [3, 10] was 9 (considered “average” or. The “M-FUN Visual Motor assessment notes” value [3, 10] was “Patient's scaled scores show a visual motor improvement”, the seizures ([3]; since reinitiation of ERT) was “better controlled” and the “gross motor abilities assessed by physical therapist” value ([3]; three months after first initiation of ERT, 20 mg/kg every 2 weeks) was “began improving”. For the same substance, the liver glycogen decrease (GSD III mice; [5]) was 24-25%, the “glycogen content in heart” value (GSD III mice; 40 mg and 100 mg treatments) was “significantly reduced” and the “glycogen content in liver” value (GSD III mice; 40 mg and 100 mg treatments) was “significantly reduced”. For the same substance, the “ratio of liver/body weight” value (GSD III mice; 40 mg and 100 mg treatments) was “reduced”, the “glycogen content in any tissues” value (GSD III mice; 20-mg treatment) was “did not affect” and the “glycogen content in skeletal muscles” value (GSD III mice; 40-mg and 100-mg treatment groups) was “no significant change”. The “GAA enzyme uptake (GAA activity rank order of tissues)” value (GSD III mice; weekly i.v. for 4 weeks) was “liver>heart>diaphragm>leg muscles”, the “plasma alanine aminotransferase (ALT)” value (GSD III mice; weekly rhGAA for 4 weeks) was “reduction” and the “plasma alkaline phosphatase (ALP)” value (GSD III mice; weekly rhGAA for 4 weeks) was “reduction”. The “plasma aspartate aminotransferase (AST)” value (GSD III mice; weekly rhGAA for 4 weeks) was “reduction”, the “plasma creatine kinase (CK)” value (GSD III mice; weekly rhGAA for 4 weeks) was “reduction” and the “anti-GAA antibodies generated, compared with that reported in GAA-KO mice” value (GSD III mice; [7]) was “significantly less”.
